Columns and labels:
[1] = test system: patients with Chronic Progressive MS and Relapsing-Remitting MS; conditions: Phase II; 0.1 mg/kg/day i.v. 7 days x 4 months or 0.07 mg/kg/day s.c. 5 days x 6 months; cited from earlier work
[2] = test system: patients with relapsing forms of clinically definite multiple sclerosis; assay: Oral Cladribine in the treatment of relapsing forms of MS (Example 1 protocol); format: in vivo, human
Excerpt: The efficacy and safety of oral Cladribine administration, eventually multi-dose administration, according to the invention can be assessed for example following the protocol below:
A study of sixty patients with relapsing forms of clinically definite multiple sclerosis is undertaken. Each patient is first examined for normal hepatic, renal, and bone marrow functioning to establish baseline values.
Patients are selected from Male or Female, between 18 and 55 years of age who had one or more relapses within the prior 12 months. Female patients are non-pregnant female.
Each of the patients in Groups 2 and 3 receives 3 mg or 10 mg 2-CdA (1, 2 or 3 administration(s) a day depending on the patient's weight) combined in cyclodextrin formulation as described in WO 2004/087101, Example 3. The Compositions of the Cladribine formulations in 3 mg or 10 mg 2-CdA tablets containing hydroxypropyl-beta-cyclodextrin are listed in Table 2 below:
In Group 1 patients receive a placebo (saline) for 4 months followed by 8 months of no treatment.
Patients are monitored to determine whether there is any progression or improvement of brain lesions associated with progression of MS through MRI scans and neurological examination as described in Miller et al., 1996, above; Evans et al., 1997, above; Sipe et al., 1984, above; and Mattson, 2002, above. All patients have a baseline and MRI study (brain or spinal cord, according to localization of the lesions) at month 12.
The patient's disability progression and the time for having a first relapse are monitored as well as the proportion of relapse-fee patients at 24 months.
Lymphocyte markers and monocyte counts are monitored in the patients.

[3] = test system: patients with remitting-relapsing multiple sclerosis; conditions: 6 monthly courses of 5 days, total dose about 4-5.7 mg/kg, cited from earlier work
[4] = test system: patients with primary progressive (PP) or secondary progressive (SP) multiple sclerosis; conditions: Phase III; 0.07 mg/kg/day s.c., repeated for 2 or 6 months; cited from earlier work
[5] = test system: patients with multiple sclerosis; conditions: with the highest doses; i.v. or s.c.; cited from earlier work
[6] = oral, succession of an induction treatment and maintenance treatments

## Nc1nc(Cl)nc2c1ncn2[C@H]1C[C@H](O)[C@@H](CO)O1 [Cladribine, 2-chloro-2′ deoxyadenosine]
[1]
  effects on EDSS, SNRS scores and MRI findings: positive effects
[2]; Groups 2 and 3: oral 2-CdA total dose 1.75 mg/kg or 3.5 mg/kg
  brain lesions (MRI scans): decrease in brain lesions
[2]; [6]
  adverse effects: no severe adverse effect is observed
  efficacy of regimen on brain lesions: efficient in decreasing brain lesions
[3]
  therapeutic efficacy of oral regimen versus i.v. infusion therapy: questioned
[3]; oral
  side effects versus i.v. infusion study: less severe
[4]
  MRI-measured brain lesions: positive on the significant reduction of MRI-measured brain lesions
[5]
  adverse effects (AEs): increased incidence of infections related to compromised immune function or myelosuppression
